Data reported in patent US6127136A, “Detection of dioxin-like compounds by detection of transformed Ah receptor/ARNT complex” (Paracelsian, Inc., priority 1996, dated 2000).

Columns and labels:
[1] = target: T1, transformed Ah receptor/ARNT complex (Cavia porcellus, UniProt Q6J287); test: Ah-ELISA dose response using PnPP detection; assay type: biochemical, guinea pig (hepatic cytosol); parameters: from tissue; host or cells: hepatic cytosol of male Hartley guinea pigs (animals from Cornell Research Animal Resources); settings: for Average Optical Density: 405 nm, PnPP 58 minutes
Experimental: The reagents and ELISA plate were prepared as described in Example 9 with the standard PNPP detection technique. The TCDD concentration was varied tested at 0, 0.016, 0.031, 0.063, 0.125, 0.25, 0.5, and 1.0 nM. After washing the plates PnPP stock was added to each well (200 uL) and the plate was incubated for 1 hour (actually 58 minutes for data shown below), at which time it was read at 405 nm in an ELISA plate reader and milli O.D. recorded.

[2] = target: T1, transformed Ah receptor/ARNT complex; test: Ah-ELISA dose response using an amplified detection system; assay type: biochemical, guinea pig (hepatic cytosol); parameters: from tissue; host or cells: hepatic cytosol of male Hartley guinea pigs (animals from Cornell Research Animal Resources); settings: for Average Optical Density: 490 nm, amplified, 28 minutes
Experimental: The reagents and ELISA plate were prepared as described in Example 9 with an amplified detection system. The TCDD concentration was varied tested at 0, 0.016, 0.031, 0.063, 0.125, 0.25, 0.5, 1.0, 2.0, and 4.0 nM.
The amplified detection system used was the alkaline phosphatase/NADP system published by Johannson et al. (J IMM Meth 87: 7-11, 1986). This system is sold as a kit under the trademark Ampak™ by DAKO.
2x enzyme stock was made by dissolving 8 mg alcohol dehydrogenase, 1.4 mg Diaphorase, 133 mg bovine serum albumin in 40 ml AMP buffer (2.3 g 85% HPLC grade phosphoric acid in a total volume of 960 ml water, pH adjusted to 7.2 with 6N NaOH, and 40 ml of ethanol was added to make 1 L). 2x INT stock was made by dissolving 50 mg INT Violet dye in 50 mL AMP buffer.
After washing the plates, 100 μl of NADP stock (0.837 mg in 10 ml of AP buffer (diethanolamine 50 mM, 1 mM MgCl2, 0.1 mM ZnCl2, 15 mM NaN3, pH 9.5)) was added and allowed to incubate at room temperature for 30 minutes. Sensitivity can be increased by increasing amount of NADP or time of incubation. The 2x enzyme stock and 2x INT stock were mixed and 200 μl of the mixture was added per well. The OD was read at 490 nm (usually read at 1 minute intervals for up to 30 minutes). The results are shown below at 28 minutes.

T1 sequence (Q6J287 1-846): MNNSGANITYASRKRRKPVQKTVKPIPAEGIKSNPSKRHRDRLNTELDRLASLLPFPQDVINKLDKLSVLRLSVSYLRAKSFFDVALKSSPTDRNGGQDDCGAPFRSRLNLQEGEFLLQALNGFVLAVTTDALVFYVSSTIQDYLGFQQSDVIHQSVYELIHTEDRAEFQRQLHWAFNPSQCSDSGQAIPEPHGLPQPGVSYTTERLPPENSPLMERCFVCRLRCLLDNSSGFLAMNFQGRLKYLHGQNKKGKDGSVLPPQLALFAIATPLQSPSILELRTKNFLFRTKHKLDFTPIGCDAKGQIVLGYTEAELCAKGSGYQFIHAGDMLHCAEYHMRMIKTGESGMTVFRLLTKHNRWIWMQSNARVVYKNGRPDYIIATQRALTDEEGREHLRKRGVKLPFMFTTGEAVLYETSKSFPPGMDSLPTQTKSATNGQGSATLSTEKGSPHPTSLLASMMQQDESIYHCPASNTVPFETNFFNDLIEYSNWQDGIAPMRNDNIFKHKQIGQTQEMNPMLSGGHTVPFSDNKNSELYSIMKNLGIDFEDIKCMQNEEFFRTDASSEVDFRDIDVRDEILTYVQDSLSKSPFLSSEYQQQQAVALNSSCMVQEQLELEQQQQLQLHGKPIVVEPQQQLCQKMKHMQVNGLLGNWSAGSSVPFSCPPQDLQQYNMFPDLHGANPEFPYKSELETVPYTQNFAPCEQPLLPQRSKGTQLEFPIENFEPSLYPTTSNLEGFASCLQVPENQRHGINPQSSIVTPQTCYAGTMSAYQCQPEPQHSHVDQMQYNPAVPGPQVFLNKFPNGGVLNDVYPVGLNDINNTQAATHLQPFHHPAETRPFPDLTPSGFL
T1 sequence (Q0WXX3 1-790 partner): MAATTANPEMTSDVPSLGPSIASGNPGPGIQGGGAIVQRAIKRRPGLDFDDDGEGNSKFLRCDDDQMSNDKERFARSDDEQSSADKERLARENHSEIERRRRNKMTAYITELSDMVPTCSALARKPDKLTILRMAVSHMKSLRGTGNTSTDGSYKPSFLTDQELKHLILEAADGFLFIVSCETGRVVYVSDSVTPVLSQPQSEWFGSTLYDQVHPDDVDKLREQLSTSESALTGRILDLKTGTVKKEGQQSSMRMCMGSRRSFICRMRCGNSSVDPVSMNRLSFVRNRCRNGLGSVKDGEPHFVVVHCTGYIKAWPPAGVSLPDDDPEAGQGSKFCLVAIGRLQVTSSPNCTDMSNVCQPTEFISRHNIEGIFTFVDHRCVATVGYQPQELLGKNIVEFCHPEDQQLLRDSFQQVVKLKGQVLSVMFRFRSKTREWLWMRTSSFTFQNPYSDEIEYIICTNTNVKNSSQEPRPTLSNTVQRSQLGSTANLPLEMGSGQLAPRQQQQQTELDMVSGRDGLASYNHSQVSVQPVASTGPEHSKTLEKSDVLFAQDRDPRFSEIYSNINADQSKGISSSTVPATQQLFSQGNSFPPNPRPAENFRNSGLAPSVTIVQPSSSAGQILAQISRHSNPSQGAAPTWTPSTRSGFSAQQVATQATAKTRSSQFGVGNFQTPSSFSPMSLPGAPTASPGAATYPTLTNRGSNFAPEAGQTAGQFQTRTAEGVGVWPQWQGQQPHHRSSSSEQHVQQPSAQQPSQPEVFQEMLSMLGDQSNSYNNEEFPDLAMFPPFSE

`Clc1cc2c(cc1Cl)Oc1cc(Cl)c(Cl)cc1O2` [TCDD, 2,3,7,8-tetrachlorodibenzo-p-dioxin] was tested, and the “Average Optical Density” value ([1]; 0.016 nM TCDD) was 0.3, the “Average Optical Density” value ([1]; 0.031 nM TCDD) was 0.338 and the “Average Optical Density” value ([1]; 0.063 nM TCDD) was 0.4. The “Average Optical Density” value ([1]; 0.125 nM TCDD) was 0.527, the “Average Optical Density” value ([1]; 0.25 nM TCDD) was 0.804 and the “Average Optical Density” value ([1]; 0.5 nM TCDD) was 1.409. For the same compound, the “Average Optical Density” value ([1]; 1 nM TCDD) was 2.155, the EC50 ([1]; PnPP detection, FIG. 6) was roughly 0.248 nM and the “Average Optical Density” value ([2]; 0.016 nM TCDD) was 0.203. The “Average Optical Density” value ([2]; 0.031 nM TCDD) was 0.228, the “Average Optical Density” value ([2]; 0.063 nM TCDD) was 0.293 and the “Average Optical Density” value ([2]; 0.125 nM TCDD) was 0.414. The “Average Optical Density” value ([2]; 0.25 nM TCDD) was 0.675, the “Average Optical Density” value ([2]; 0.5 nM TCDD) was 1.036 and the “Average Optical Density” value ([2]; 1 nM TCDD) was 1.421. For the same compound, the “Average Optical Density” value ([2]; 2 nM TCDD) was 1.803, the “Average Optical Density” value ([2]; 4 nM TCDD) was 1.844 and the EC50 ([2]; amplified detection, FIG. 7) was roughly 0.248 nM.
